In patent US6093563A, “Chondroitin lyase enzymes” (IBEX Technologies R and D, Inc., priority 1994, dated 2000):

Experiments:
[1] = target: Flavobacterium heparinum chondroitinase B (55,000 Dalton, purified, Sequence ID No. 4) (Pedobacter heparinus, UniProt Q46079); conditions: 0.1 mM reagent; 20 mM Tris buffer, pH 8.0; 0.5 mg/ml dermatan sulfate as substrate; none = 100
Procedure: (§1) Chondroitinase activity was determined by a modification of the spectrophotometric assay described by Yang, et al., J. Biol. Chem., 160(30):1849-1857, 1985. Chondroitinases degrade their respective substrates by an eliminative reaction resulting in the formation of 4,5-unsaturated sulfated disaccharides which absorb ultraviolet light at 232 nm. Reaction buffers contained 50 mM Tris, pH 8.0 and 0.5 mg/ml substrate; dermatan sulfate for chondroitinase B activity, chondroitin sulfate A for chondroitinase AC activity. A continuous spectrophotometric assay is carried out by transferring a 10 to 50 μl sample to a quartz cuvette and adding the reaction buffer to make a final volume of one ml. The cuvette is placed in a Beckman DU 640 spectrophotometer, controlled to maintain a constant temperature of 30° C., and the increase in absorbance at 232 nm monitored for three to five minutes. Activities are calculated using the molar extinction coefficient for chondroitin sulfate, 5.1×103 M^-1, and are expressed in international units, IU, where one IU is the amount of enzyme required to catalyze the formation of one μmole unsaturated product per minute.

[2] = target: Flavobacterium heparinum chondroitinase AC (77,000 Dalton, purified, Sequence ID No. 2) (Pedobacter heparinus, UniProt Q59288); conditions: 0.1 mM reagent; 20 mM Tris buffer, pH 8.0; 0.5 mg/ml chondroitin sulfate A as substrate; none = 100
Procedure: as §1

Chain of Flavobacterium heparinum chondroitinase B (55,000 Dalton, purified, Sequence ID No. 4) (Q46079 26-506): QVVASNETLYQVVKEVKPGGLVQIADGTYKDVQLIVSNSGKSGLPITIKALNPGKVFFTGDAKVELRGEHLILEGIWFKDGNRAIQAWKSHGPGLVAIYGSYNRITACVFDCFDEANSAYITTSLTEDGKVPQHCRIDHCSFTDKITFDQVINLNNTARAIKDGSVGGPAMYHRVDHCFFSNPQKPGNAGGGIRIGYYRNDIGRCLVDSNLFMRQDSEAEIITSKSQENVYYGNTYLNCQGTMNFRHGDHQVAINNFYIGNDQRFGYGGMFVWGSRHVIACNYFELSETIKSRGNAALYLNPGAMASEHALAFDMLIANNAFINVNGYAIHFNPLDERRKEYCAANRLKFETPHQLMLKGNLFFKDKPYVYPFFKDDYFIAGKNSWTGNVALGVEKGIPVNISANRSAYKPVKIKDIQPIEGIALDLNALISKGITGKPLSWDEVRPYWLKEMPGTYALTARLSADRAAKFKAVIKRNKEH
Chain of Flavobacterium heparinum chondroitinase AC (77,000 Dalton, purified, Sequence ID No. 2) (Q59288 23-700): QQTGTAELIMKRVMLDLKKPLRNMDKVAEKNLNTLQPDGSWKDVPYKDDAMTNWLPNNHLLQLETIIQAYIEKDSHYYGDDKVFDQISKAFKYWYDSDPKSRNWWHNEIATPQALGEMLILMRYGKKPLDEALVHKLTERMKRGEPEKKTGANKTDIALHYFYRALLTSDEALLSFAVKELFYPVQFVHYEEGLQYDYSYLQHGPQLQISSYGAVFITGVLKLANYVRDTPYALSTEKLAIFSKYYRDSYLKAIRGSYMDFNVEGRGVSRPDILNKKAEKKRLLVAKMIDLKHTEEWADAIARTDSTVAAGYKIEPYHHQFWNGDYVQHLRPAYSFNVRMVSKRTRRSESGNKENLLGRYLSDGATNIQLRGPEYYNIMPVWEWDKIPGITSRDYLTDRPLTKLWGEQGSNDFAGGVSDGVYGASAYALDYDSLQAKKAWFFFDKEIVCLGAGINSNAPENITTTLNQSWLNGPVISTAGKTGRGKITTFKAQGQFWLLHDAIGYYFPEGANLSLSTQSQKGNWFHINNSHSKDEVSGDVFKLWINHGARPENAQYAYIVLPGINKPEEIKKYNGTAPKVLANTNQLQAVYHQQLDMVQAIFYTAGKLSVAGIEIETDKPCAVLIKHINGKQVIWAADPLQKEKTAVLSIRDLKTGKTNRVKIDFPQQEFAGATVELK

SMILES: O=C(O)CN(CCN(CC(=O)O)CC(=O)O)CC(=O)O [EDTA]
- chondroitinase B relative activity (%) [1]: 1%
- chondroitinase AC relative activity (%) [2]: 97%
